In PubChem BioAssay AID1963984 (Molecular Pharmacology Branch, DTP, NCI, 2024):

Tested on: 233499-124-R-J3-PDC spheroids with HUVEC/MSC, viability
Test: Anticancer human tumor 233499-124-R-J3-PDC patient-derived colon adenocarcinoma cell line growth inhibition [PI3K]
Details: for IC50: curve of first compound; for viability, T/C: stronger effect = lower value; active means viability on the fitted dose curve at most 10% of control; inactive means the rest
Method in brief: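 Stroma-containing spheroids: tumor line, pooled-donor HUVEC, hMSC. Treatments: targeted agents with PI3K inhibitors. Dosing: clinically relevant, half-log spacing, 10 microM ceiling without known Cmax. Read-out: cell viability.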

[1] = second compound 0.0316 µM, first compound 0.0316 µM
[2] = second compound 0.0316 µM, first compound 0.1 µM
[3] = second compound 0.0316 µM, first compound 0.316 µM
[4] = second compound 0.0316 µM, first compound 1 µM
[5] = second compound 0.0316 µM, first compound 3.16 µM
[6] = second compound 0.0316 µM, first compound 10 µM
[7] = second compound 0.1 µM, first compound 0.0316 µM
[8] = second compound 0.1 µM, first compound 0.1 µM
[9] = second compound 0.1 µM, first compound 0.316 µM
[10] = second compound 0.1 µM, first compound 1 µM
[11] = second compound 0.1 µM, first compound 3.16 µM
[12] = second compound 0.1 µM, first compound 10 µM
[13] = second compound 0.316 µM, first compound 0.0316 µM
[14] = second compound 0.316 µM, first compound 0.1 µM
[15] = second compound 0.316 µM, first compound 0.316 µM
[16] = second compound 0.316 µM, first compound 1 µM
[17] = second compound 0.316 µM, first compound 3.16 µM
[18] = second compound 0.316 µM, first compound 10 µM
[19] = second compound 1 µM, first compound 0.0316 µM
[20] = second compound 1 µM, first compound 0.1 µM
[21] = second compound 1 µM, first compound 0.316 µM
[22] = second compound 1 µM, first compound 1 µM
[23] = second compound 1 µM, first compound 3.16 µM
[24] = second compound 1 µM, first compound 10 µM
[25] = second compound 3.16 µM, first compound 0.0316 µM
[26] = second compound 3.16 µM, first compound 0.1 µM
[27] = second compound 3.16 µM, first compound 0.316 µM
[28] = second compound 3.16 µM, first compound 1 µM
[29] = second compound 3.16 µM, first compound 3.16 µM
[30] = second compound 3.16 µM, first compound 10 µM
[31] = second compound 10 µM, first compound 0.0316 µM
[32] = second compound 10 µM, first compound 0.1 µM
[33] = second compound 10 µM, first compound 0.316 µM
[34] = second compound 10 µM, first compound 1 µM
[35] = second compound 10 µM, first compound 3.16 µM
[36] = second compound 10 µM, first compound 10 µM
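Further: spheroids exposed to agents for seven days before readout.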
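Wherever viability, T/C is given: percent viability relative to DMSO vehicle control taken as 100%.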

CC1(C)CCC(Nc2ncc(C(F)(F)F)c(-c3c[nH]c4c(P(C)(C)=O)c(C#N)ccc34)n2)CN1 (centres undefined) + Cc1nc(NC(=O)N2CCCC2C(N)=O)sc1-c1ccnc(C(C)(C)C(F)(F)F)c1
active: viability, T/C [12] 2.83% | viability, T/C [30] 0.85% | viability, T/C [36] 0.57%
inactive: viability, T/C [1] 65.2% | viability, T/C [2] 32% | viability, T/C [3] 32.9% | viability, T/C [4] 34.6% | viability, T/C [5] 25.1% | viability, T/C [6] 6.03% | viability, T/C [7] 51.6% | viability, T/C [8] 41.4% | viability, T/C [9] 29.3% | viability, T/C [10] 25.1% | viability, T/C [11] 19.8% | viability, T/C [13] 54.8% | viability, T/C [14] 76.9% | viability, T/C [15] 23.8% | viability, T/C [16] 31.1% | viability, T/C [17] 16.6% | viability, T/C [18] 3.57% | viability, T/C [19] 69% | viability, T/C [20] 34.2% | viability, T/C [21] 24% | viability, T/C [22] 21.9% | viability, T/C [23] 29.1% | viability, T/C [24] 2.22% | viability, T/C [25] 52.1% | viability, T/C [26] 34.9% | viability, T/C [27] 31% | viability, T/C [28] 18.4% | viability, T/C [29] 15.9% | viability, T/C [31] 16.1% | viability, T/C [32] 16.2% | viability, T/C [33] 25.9% | viability, T/C [34] 27.1% | viability, T/C [35] 10.1%
66.4 nM: IC50 (second compound 0.0316 µM)
< 31.6 nM: IC50 (second compound 3.16 µM) | IC50 (second compound 10 µM)
154 nM: IC50 (second compound 0.316 µM)
32.6 nM: IC50 (second compound 0.1 µM)
62.3 nM: IC50 (second compound 1 µM)

C[C@@H](NC(=O)c1ncnc(N)c1Cl)c1ncc(C(=O)Nc2cc(C(F)(F)F)c(Cl)cn2)s1 + Cc1nc(NC(=O)N2CCCC2C(N)=O)sc1-c1ccnc(C(C)(C)C(F)(F)F)c1
> 10000 nM: IC50 (second compound 0.0316 µM) | IC50 (second compound 0.1 µM) | IC50 (second compound 0.316 µM)
458 nM: IC50 (second compound 3.16 µM)
9680 nM: IC50 (second compound 1 µM)
inactive: viability, T/C [1] 101% | viability, T/C [2] 75.5% | viability, T/C [3] 113% | viability, T/C [4] 136% | viability, T/C [5] 112% | viability, T/C [6] 106% | viability, T/C [7] 109% | viability, T/C [8] 90.3% | viability, T/C [9] 104% | viability, T/C [10] 110% | viability, T/C [11] 104% | viability, T/C [12] 54.8% | viability, T/C [13] 111% | viability, T/C [14] 104% | viability, T/C [15] 87.7% | viability, T/C [16] 63.9% | viability, T/C [17] 92.8% | viability, T/C [18] 79.4% | viability, T/C [19] 90.4% | viability, T/C [20] 93.3% | viability, T/C [21] 69% | viability, T/C [22] 94.4% | viability, T/C [23] 99.4% | viability, T/C [24] 48.8% | viability, T/C [25] 51.5% | viability, T/C [26] 71.5% | viability, T/C [27] 52% | viability, T/C [28] 42.5% | viability, T/C [29] 37.9% | viability, T/C [30] 35.8% | viability, T/C [31] 33.1% | viability, T/C [32] 29.2% | viability, T/C [33] 34.1% | viability, T/C [34] 38% | viability, T/C [35] 14.4% | viability, T/C [36] 14%
< 31.6 nM: IC50 (second compound 10 µM)
